Measurements reported in paper PMC7927146, “Discovery of an Orally Available Diazabicyclooctane Inhibitor (ETX0282) of Class A, C, and D Serine β-Lactamases” (Journal of Medicinal Chemistry, 2020).
Structures can show the parent of a compound that is named as a salt.

Experiments:
log D = type: physicochemical
[1] = cited from earlier work
E. coli ARC2687 = assay: Neutropenic mouse thigh infection model; type: in vivo; details: CPDP alone, po, q6h
[2] = target: class A, C, and D serine β-lactamases; assay: β-lactamase inhibition, statements over the enzyme panel; type: biochemical; details: 60 min; TEM-1, AmpC, OXA-48; read-out: IC50 against β-lactamases, all values
Experimental: The spectrum of class A, C, and D β-lactamase inhibition by ETX1317 was evaluated by measuring its ability to protect the β-lactamase substrate nitrocefin from degradation using previously described methods.[13]
The methods used to measure inhibition of β-lactamases were the same as those described in the supplement to Durand-Reville et al.[13] Reaction progress curves at 490 nm for hydrolysis of the chromogenic β-lactamase substrate nitrocefin (SynGene, Bangalore, India) at 100 μM were measured for a range of inhibitor concentrations in 0.1 M sodium phosphate (pH 7.0), 10 mM NaHCO3, and 0.005% Triton X-100 at ambient temperature using a Spectramax absorbance plate reader (Molecular Devices, Sunnyvale, CA). The set of 12 progress curves were fit globally to a second-order kinetic model of enzyme inactivation. […] The second-order inactivation rate constant kinact/Ki was calculated from the set of progress curves using Global Kinetic Explorer (Kintek) as previously described.[13]

E. coli TEM-1 (Class A) = E. coli TEM-1 (Class A) (Escherichia coli, UniProt P62593); assay: β-lactamase inhibition, nitrocefin hydrolysis progress curves; type: biochemical; details: supplement CSV; incubation time not given, values correspond to 60 min
[3] = test system: E. coli ARC3627 (OXA-1, AmpC, CTX-M-15, TEM-1); assay: Broth microdilution MIC (BLI alone, cefpodoxime, cefpodoxime + BLI); type: cell-based; details: for MIC: Escherichia coli
[4] = test system: K. pneumoniae ARC561 (OKP-6, AmpC, OXA-2, SHV-18) ATCC700603; assay: as above; type: cell-based; details: for MIC: Klebsiella pneumoniae, ATCC700603
[5] = target: P. aeruginosa AmpC (Class C) (Pseudomonas aeruginosa, UniProt P24735); assay: β-lactamase inhibition, nitrocefin hydrolysis progress curves; type: biochemical
[6] = Stability in intestinal S9 fraction; type: in vitro ADME, rat; details: for half-life at 10 μM: rat, intestinal S9 fraction, pH 7.4
Experimental: (§1) Liver and intestinal S9 subcellular fractions (Xenotech) from rat and human tissue were diluted to a protein concentration of 0.8 mg/mL in 100 mM potassium phosphate buffer, pH 7.4, and preincubated in a 37 °C water bath for 5 min prior to addition of 10 μM (final) of compound of interest. Serial aliquots were removed at 0, 2, 5, 10, 20, 40, and 60 min and quenched in acetonitrile with internal standard prior to LC/MS/MS[30] to determine concentrations of prodrug. First order degradation half-lives were determined from the slope of the log–linear plots of the depletion data.

[7] = Stability in liver S9 fraction; type: in vitro ADME, human; details: 37 °C; for Half-life, Human liver S9: 0.8 mg/mL protein, 10 μM
Experimental: as §1

[8] = Stability in intestinal S9 fraction; type: in vitro ADME, human; details: for half-life at 10 μM: human, intestinal S9 fraction, pH 7.4
Experimental: as §1

[9] = Stability in liver S9 fraction; type: in vitro ADME, rat; details: 37 °C; for Half-life, Rat liver S9: 0.8 mg/mL protein, 10 μM
Experimental: as §1

[10] = Buffer stability of ester prodrugs; type: physicochemical; details: potassium phosphate buffer pH 7.4, 37 °C; for Half-life, pH 7.4 buffer: 10 μM
Experimental: Buffer stability (potassium phosphate buffer, pH 7.4) was evaluated using the same protocol but without adding the S9 subcellular fractions.

[11] = Phase 1 clinical trials in healthy volunteers (NCT03491748); type: in vivo, human; details: alone or in combination with cefpodoxime proxetil
Experimental: (§2) The safety of ETX0282 was investigated with a 14-day toxicology study under Good Laboratory Practice (GLP) in rats and dogs following daily oral administration. The doses of 500 mg kg^–1 day^–1 and 400 mg kg^–1 day^–1 were established as the NOAELs (no observed adverse effect level) for rats and dogs, respectively.

[12] = Intravenous and oral pharmacokinetics in rats; details: rat, 10 mg/kg equivalent dose of ETX1317
[13] = 14-day GLP toxicology study, daily oral administration; details: in vivo
Experimental: as §2

[14] = target: K. pneumoniae OXA-48 (Class D) (Klebsiella pneumoniae, UniProt Q6XEC0); assay: biochemical
[15] = test system: MDR Enterobacterales clinical isolates; assay: Broth microdilution MIC, statements over the isolate panel; type: cell-based; details: read-out: MIC across the clinical isolates of Table 6
Experimental: (§3) The potency and spectrum of β-lactamase inhibition by ETX1317 supported further antibacterial profiling in combination with β-lactams against relevant Gram-negative clinical isolates. Approved penicillins and cephalosporins administered orally were evaluated, using not only MIC as a criterion but also oral bioavailability, approved dose levels, and unbound plasma exposures. Cefpodoxime (CPD) emerged as the lead β-lactam candidate.[30] Its approved use as an orally bioavailable proxetil ester prodrug to treat UTI infections was also aligned with our potential target product profile. A fixed 1:2 ratio of cefpodoxime/ETX1317 was utilized as the testing paradigm for antimicrobial susceptibility. […] The addition of ETX1317 to CPD restored its activity to ≤0.5 μg/mL across all Enterobacterales isolates tested, including the CRE strains (identified by “a” in Table 6).
(§4) The broth microdilution susceptibility testing was conducted according to CLSI[39] using CAMHB. Durlobactam and avibactam were synthesized at Entasis Therapeutics. Cefpodoxime (catalog no. J66225) was purchased from Alfa Aesar.

[16] = test system: E. coli ARC2687 (CTX-M-14, AmpC); assay: Broth microdilution MIC; type: cell-based; details: Escherichia coli, agent alone
Experimental: as §3, §4

[17] = 0.8 mg/mL protein, 10 μM, 37 °C
[18] = species not given in the sentence, read-out: t1/2, stability to intestinal esterases

Chain of E. coli TEM-1 (Class A) (P62593 24-286 limits assumed): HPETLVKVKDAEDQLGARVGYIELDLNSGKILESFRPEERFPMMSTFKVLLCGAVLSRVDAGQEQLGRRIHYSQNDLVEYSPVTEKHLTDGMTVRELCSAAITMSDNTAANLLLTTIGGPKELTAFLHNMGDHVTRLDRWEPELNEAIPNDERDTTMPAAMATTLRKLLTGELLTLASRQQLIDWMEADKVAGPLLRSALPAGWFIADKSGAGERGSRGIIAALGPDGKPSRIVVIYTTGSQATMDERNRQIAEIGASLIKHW
Chain of P. aeruginosa AmpC (Class C) (P24735 27-397): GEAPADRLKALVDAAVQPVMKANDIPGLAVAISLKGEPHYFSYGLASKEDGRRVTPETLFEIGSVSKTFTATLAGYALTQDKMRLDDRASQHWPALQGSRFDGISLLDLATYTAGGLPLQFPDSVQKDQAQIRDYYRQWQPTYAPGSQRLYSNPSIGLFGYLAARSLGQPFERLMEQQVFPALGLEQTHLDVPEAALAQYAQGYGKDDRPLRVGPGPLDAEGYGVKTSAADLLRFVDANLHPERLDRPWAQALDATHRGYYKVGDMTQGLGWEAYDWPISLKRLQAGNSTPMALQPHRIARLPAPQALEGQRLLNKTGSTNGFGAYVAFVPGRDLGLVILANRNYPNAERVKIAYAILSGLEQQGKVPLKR
Chain of K. pneumoniae OXA-48 (Class D) (Q6XEC0 23-265, looked up): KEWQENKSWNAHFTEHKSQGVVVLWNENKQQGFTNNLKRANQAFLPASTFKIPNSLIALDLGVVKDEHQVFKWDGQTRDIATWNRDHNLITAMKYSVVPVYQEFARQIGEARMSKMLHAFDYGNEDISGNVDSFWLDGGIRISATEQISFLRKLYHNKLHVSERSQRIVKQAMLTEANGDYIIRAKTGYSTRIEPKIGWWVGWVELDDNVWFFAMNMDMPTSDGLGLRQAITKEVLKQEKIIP

In the case of `NC(=O)[C@@H]1CC[C@@H]2CN1C(=O)N2OS(=O)(=O)O` [Avibactam, avibactam], the logD (log D) is listed as under 0 and the “oral bioavailability F” value [1] is listed as under 10%.

In the case of `COCC1=C(C(=O)OC(C)OC(=O)OC(C)C)N2C(=O)[C@@H](NC(=O)/C(=N\OC)c3csc(N)n3)[C@H]2SC1` (stereo partly drawn) [CPDP, cefpodoxime proxetil], the “efficacy in thigh model” value (E. coli ARC2687) is reported as “not efficacious”.

Work on `CC1=C[C@@H]2CN(C(=O)N2OC(F)(F)C(=O)O)[C@@H]1C(N)=O` [Compound 2] yielded an IC50 [2] of under 15 nM and an IC50 (E. coli TEM-1 (Class A)) of 0.001 µM.

For `CC1=C[C@@H]2CN(C(=O)N2O[C@H](F)C(=O)O)[C@@H]1C(N)=O` [Compound 4], the “fold reduction of cefpodoxime MIC compared to the MIC with no BLI” value ([3]; E. coli ARC3627, BLI 4 μg/mL) was “greater than 128 fold”, the IC50 (E. coli TEM-1 (Class A)) was 0.001 µM and the “fold reduction of cefpodoxime MIC compared to the MIC with no BLI” value ([4]; K. pneumoniae ARC561, BLI 4 μg/mL) was “greater than 128 fold”.

`CC1=C[C@@H](C(N)=O)N2C[C@@H]1N(O[C@H](F)C(=O)O)C2=O` [Compound 13, (2R)-2-(((2S,5R)-2-Carbamoyl-4-methyl-7-oxo-1,6-diazabicyclo[3.2.1]oct-3-en-6-yl)oxy)-2-fluoroacetic Acid Lithium Salt] showed an IC50 ([5]; IC50 (µM) P. aeruginosa AmpC (Class C), supplement CSV, incubation time not given, values correspond to 60 min) of 0.16 µM, an IC50 (E. coli TEM-1 (Class A)) of 0.003 µM and an MIC [4] of 16 µg/mL.

With `CC1=C[C@@H](C(N)=O)N2C[C@@H]1N(O[C@@H](F)C(=O)O)C2=O` [Compound 14] the MIC [3] was 0.5 µg/mL.

In the case of `CCOC(=O)[C@@H](F)ON1C(=O)N2C[C@H]1C=C(C)[C@H]2C(N)=O` [Compound 15], the “Half-life, Rat intestinal S9” value [6, 17] is reported as 39 min, the “Half-life, Human liver S9” value [7] is reported as 6.5 min and the “Half-life, Human intestinal S9” value [8, 17] is reported as 38 min. The “Half-life, Rat liver S9” value [9] was 4.4 min and the “Half-life, pH 7.4 buffer” value [10] was 41 min.

With `CC1=C[C@@H]2CN(C(=O)N2O[C@H](F)C(=O)OC(C)C)[C@@H]1C(N)=O` [Compound 16] the half-life at 10 μM [6, 18] was over 120 min and the half-life at 10 μM [8, 18] was over 120 min.

Compound `CCOC(=O)[C@H](F)ON1C(=O)N2C[C@H]1C=C(C)[C@H]2C(=O)NCCNS(N)(=O)=O` [Compound 19] has a half-life at 10 μM ([6]; 0.8 mg/mL protein, 10 μM, 37 °C, read-out: Half-life, Rat intestinal S9) of 20 min, a half-life at 10 μM ([7]; human, liver S9 fraction, pH 7.4, 0.8 mg/mL protein) of 9.9 min and a half-life at 10 μM ([8]; 0.8 mg/mL protein, 10 μM, 37 °C, read-out: Half-life, Human intestinal S9) of 22 min. For the same compound, the half-life at 10 μM ([9]; rat, liver S9 fraction, pH 7.4, 0.8 mg/mL protein) was 10 min and the half-life at 10 μM ([10]; potassium phosphate buffer without S9 fractions) was 26 min.

In the case of `CCOC(=O)[C@H](F)ON1C(=O)N2C[C@H]1C(C)=C[C@H]2C(N)=O` [Compound 20], the “Half-life, Rat intestinal S9” value [6, 17] is reported as 18 min, the “Half-life, Human liver S9” value [7] is reported as 2.4 min and the “Half-life, Human intestinal S9” value [8, 17] is reported as 6.9 min. The “Half-life, Rat liver S9” value [9] was 2.4 min and the “Half-life, pH 7.4 buffer” value [10] was 22 min.

With `CC1=C[C@@H](C(N)=O)N2C[C@@H]1N(O[C@@H](F)C(=O)OC(C)C)C2=O` [Compound 21] the “Half-life, Rat intestinal S9” value [6, 17] was 68 min, the “Half-life, Human liver S9” value [7] was 8.5 min and the “Half-life, Human intestinal S9” value [8, 17] was 36 min. The “Half-life, Rat liver S9” value [9] was 3 min and the “Half-life, pH 7.4 buffer” value [10] was 91 min.

With `CCOC(=O)[C@@H](F)ON1C(=O)N2C[C@H]1C(C)=C[C@H]2C(N)=O` [Compound 22, Ethyl (2R)-2-[[(2S,5R)-2-Carbamoyl-4-methyl-7-oxo-1,6-diazabicyclo[3.2.1]oct-3-en-6-yl]oxy]-2-fluoro-acetate] the “Half-life, Rat intestinal S9” value [6, 17] was 42 min, the “Half-life, Human liver S9” value [7] was 27 min and the “Half-life, Human intestinal S9” value [8, 17] was 35 min. For the same compound, the “Half-life, Rat liver S9” value [9] was 20 min and the “Half-life, pH 7.4 buffer” value [10] was 44 min.

In the case of `CC1=C[C@@H](C(N)=O)N2C[C@@H]1N(O[C@H](F)C(=O)OC(C)C)C2=O` [Compound 23, (2R)-Isopropyl 2-(((2S,5R)-2-Carbamoyl-4-methyl-7-oxo-1,6-diazabicyclo[3.2.1]oct-3-en-6-yl)oxy)-2-fluoroacetate], the serious adverse events [11] is reported as “no serious adverse events reported”, the tolerability [11] is reported as “generally well-tolerated” and the “Half-life, Rat intestinal S9” value [6, 17] is reported as 240 min. For the same compound, the “Half-life, Human liver S9” value [7] was 39 min, the “circulating concentrations of ETX0282 after oral ETX0282” value [12] was “no circulating concentrations of ETX0282 observed” and the “Half-life, Human intestinal S9” value [8, 17] was 163 min. The “Half-life, Rat liver S9” value [9] was 32 min, the “Half-life, pH 7.4 buffer” value [10] was 186 min and the NOAEL at 14 day ([13]; dog, dogs) was 400 mg/kg/day. For the same compound, the NOAEL at 14 day ([13]; rat, rats) was 500 mg/kg/day.

In the case of `CC1=C[C@@H]2CN(C(=O)N2OS(=O)(=O)O)[C@@H]1C(N)=O` [Durlobactam, durlobactam], the IC50 ([5]; IC50 10 min, P. aeruginosa AmpC (Class C), 10 min incubation) is reported as 0.008 ± 0.003 µM, the IC50 ([5]; IC50 60 min, P. aeruginosa AmpC (Class C), 60 min incubation) is reported as 0.0058 µM and the logD (log D) is reported as under 0. For the same compound, the “oral bioavailability F” value [1] was under 10%, the MIC [3] was 0.25 µg/mL and the IC50 ([14]; IC50 10 min, 10 min incubation) was 24 ± 6 nM. For the same compound, the IC50 ([14]; IC50 60 min, 60 min incubation) was 5 nM and the MIC [4] was 8 µg/mL.

Work on `COCC1=C(C(=O)O)N2C(=O)[C@@H](NC(=O)/C(=N\OC)c3csc(N)n3)[C@H]2SC1` [cefpodoxime] yielded an MIC [15] of over 64 µg/mL.

`C[C@H]1COc2c(N3CCN(C)CC3)c(F)cc3c(=O)c(C(=O)O)cn1c23` [levofloxacin] gave an MIC [16] of over 4 µg/mL.

Compound `C[C@@H](O)[C@H]1C(=O)N2C(C(=O)O)=C(S[C@@H]3CN[C@H](C(=O)N(C)C)C3)[C@H](C)[C@H]12` [meropenem] has an MIC [16] of 0.03 µg/mL.
